We go through ten molecules from ChEMBL document CHEMBL4043278, “Discovery of benzo[g]indoles as a novel class of non-covalent Keap1-Nrf2 protein-protein interaction inhibitor” (Bioorg Med Chem Lett, 2017).

Data set [1] is described as follows: Metabolic stability in human liver microsomes assessed as parent compound remaining at 1 uM preincubated for 3 mins followed by NADP+ addition measured after 30 mins by LC-MS assay. It counts as ADME, microsome. The following applies: read-out: Stability.
Data set [2] has as its system HepG2. As to the kind of experiment: Cytotoxicity against human HepG2 cells assessed as reduction in cell viability at 50 uM after 24 hrs by WST8 assay. It counts as cell-based. The following applies: hepg2, 24 h.
The target in data set [3] is T1, Kelch-like ECH-associated protein 1/Nuclear factor erythroid 2-related factor 2 (Mus musculus) (UniProt Q60795+Q9Z2X8). Put plainly: Inhibition of Keap1-Nrf2 protein-protein interaction in MEF assessed as increase in Nrf2 activation mediated NQO1 mRNA level at 100 uM after 4 hrs by qRT-PCR method.
Data set [4] has as its target T1, Kelch-like ECH-associated protein 1/Nuclear factor erythroid 2-related factor 2 (Mus musculus). Put plainly: Inhibition of Keap1-Nrf2 protein-protein interaction in MEF assessed as increase in Nrf2 activation mediated NQO1 mRNA level at 10 uM after 4 hrs by qRT-PCR method.

The source made the active and inactive calls. The rule behind the calls is not given here.

T1 sequence (Q60795 whole entry, looked up): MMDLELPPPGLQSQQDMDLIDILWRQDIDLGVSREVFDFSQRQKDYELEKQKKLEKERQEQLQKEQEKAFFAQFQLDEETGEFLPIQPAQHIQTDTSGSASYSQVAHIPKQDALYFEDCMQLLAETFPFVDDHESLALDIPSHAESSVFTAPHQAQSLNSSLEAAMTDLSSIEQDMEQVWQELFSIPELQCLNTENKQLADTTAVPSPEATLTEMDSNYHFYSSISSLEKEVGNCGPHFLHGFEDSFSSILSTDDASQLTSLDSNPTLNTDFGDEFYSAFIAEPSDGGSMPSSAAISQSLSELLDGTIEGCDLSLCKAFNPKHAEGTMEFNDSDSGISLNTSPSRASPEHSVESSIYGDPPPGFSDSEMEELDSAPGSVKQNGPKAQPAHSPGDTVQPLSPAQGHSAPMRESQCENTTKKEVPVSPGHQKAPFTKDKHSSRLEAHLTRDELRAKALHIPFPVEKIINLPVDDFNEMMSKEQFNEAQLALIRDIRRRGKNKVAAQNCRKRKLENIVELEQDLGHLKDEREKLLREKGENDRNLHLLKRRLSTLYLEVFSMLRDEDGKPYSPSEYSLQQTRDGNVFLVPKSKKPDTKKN
T1 sequence (Q9Z2X8 whole entry, looked up): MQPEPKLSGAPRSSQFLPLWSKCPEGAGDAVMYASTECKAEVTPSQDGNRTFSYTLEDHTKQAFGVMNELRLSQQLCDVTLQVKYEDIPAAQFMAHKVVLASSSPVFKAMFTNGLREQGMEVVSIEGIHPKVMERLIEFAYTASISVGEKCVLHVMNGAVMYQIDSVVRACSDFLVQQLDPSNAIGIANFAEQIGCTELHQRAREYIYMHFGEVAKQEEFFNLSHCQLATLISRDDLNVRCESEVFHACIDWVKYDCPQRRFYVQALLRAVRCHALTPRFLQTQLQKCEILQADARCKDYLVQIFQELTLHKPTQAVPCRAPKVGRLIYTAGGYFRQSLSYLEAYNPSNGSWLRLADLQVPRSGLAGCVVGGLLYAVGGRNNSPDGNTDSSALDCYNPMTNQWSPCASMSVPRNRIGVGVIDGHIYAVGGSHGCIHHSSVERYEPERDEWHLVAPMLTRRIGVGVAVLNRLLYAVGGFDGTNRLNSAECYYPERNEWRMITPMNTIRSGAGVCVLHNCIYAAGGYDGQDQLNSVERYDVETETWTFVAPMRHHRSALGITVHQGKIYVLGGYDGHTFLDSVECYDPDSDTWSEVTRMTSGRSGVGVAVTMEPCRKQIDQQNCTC

In the case of `COc1ccc(S(=O)(=O)Nc2cc3c(C(=O)NNc4ccccc4)c(C)n(S(=O)(=O)c4ccc(OC)cc4)c3c3ccccc23)cc1`, the remaining at 0.5 h, 1 µM in data set [1] was 85.4%. The Activity entry in data set [2] is “Non-Toxic”. On to `COc1ccc(NNC(=O)c2c(C)n(S(=O)(=O)c3ccc(OC)cc3)c3c2cc(NS(=O)(=O)c2ccc(OC)cc2)c2ccccc23)cc1`, for which the remaining at 0.5 h, 1 µM in data set [1] worked out at 94.8%. Also, in data set [2], the Activity result is “Non-Toxic”. The like results for `COc1ccc(S(=O)(=O)N(CC(=O)O)c2ccc(N(CC(=O)O)S(=O)(=O)c3ccc(OC)cc3)c3ccccc23)cc1` were, in that order, 58.6% and “Non-Toxic”.

Turning to `CNNC(=O)c1c(C)n(S(=O)(=O)c2ccc(OC)cc2)c2c1cc(NS(=O)(=O)c1ccc(OC)cc1)c1ccccc12`, in data set [1], the remaining at 0.5 h, 1 µM came out at 90.8%. Besides, in data set [2], the Activity entry was “Non-Toxic”.

For `CCOc1ccc(S(=O)(=O)Nc2cc3c(C(=O)NN)c(C)n(S(=O)(=O)c4ccc(OCC)cc4)c3c3ccccc23)cc1`, the remaining at 0.5 h, 1 µM in data set [1] was found to be 46.6%. For the same molecule, in data set [2], the Activity entry is listed as “Non-Toxic”.

Turning to `COc1ccc(S(=O)(=O)Nc2cc3c(C(=O)NNc4ccc([N+](=O)[O-])cc4)c(C)n(S(=O)(=O)c4ccc(OC)cc4)c3c3ccccc23)cc1`, the remaining at 0.5 h, 1 µM in data set [1] was found to be 86.5%. Also, the Activity entry in data set [2] is given as “Toxic”. In the case of `COc1cccc2c1C(=O)c1c(O)c3c(c(O)c1C2=O)C[C@@](O)(C(=O)CO)C[C@@H]3O[C@H]1C[C@H](N)[C@H](O)[C@H](C)O1` [DOXORUBICIN], the Activity result in data set [2] is listed as “Toxic”.

In the case of `CCOc1ccc(S(=O)(=O)Nc2cc3c(C(=O)NO)c(C)n(S(=O)(=O)c4ccc(OCC)cc4)c3c3ccccc23)cc1`, the inhibition result in data set [3] is “Active”. The remaining at 0.5 h, 1 µM in data set [1] stood at 81%. Moreover, in data set [2], the Activity result is “Non-Toxic”. As to `CC(C)(C)c1cc(O)ccc1O`, the inhibition entry in data set [4] was “Active”. Regarding `COc1ccc(S(=O)(=O)Nc2ccc(NS(=O)(=O)c3ccc(OC)cc3)c3ccccc23)cc1`, in data set [1], the remaining at 0.5 h, 1 µM is 9.3%.
